# Test results published in patent US12156865B2, “Formulation for soft anticholinergic analogs” (Bodor Laboratories, Inc., priority 2016, dated 2024).
# What was measured:
# Gottingen Minipigs = assay: 14-day dermal and systemic toxicity study in Gottingen Minipigs; settings: anhydrous composition, 14 days
# Procedure: (§2) All groups received 2 mL of gel formulation, once a day, for 14 consecutive days, applied to approximately 10% of their body surface area on their backs.
# The study included daily observations of the site of application and scoring of erythema and edema (if present), daily general examinations including heart rate as well as pupil size assessment at days 1, 2, 3, 5, 7, 10 and 14. The frequent observations of heart rate and pupil size were intended to identify any potential systemic anticholinergic effect. Main organs were evaluated during necropsy and histopathology evaluation was completed for treated and untreated skin. Blood samples for chemistry and hematology analysis were collected as well as PK samples.
# (§3) The estimated BBI-4000 dose applied to the skin in this study was 40 mg/kg/day for Group 3 and 20 mg/kg/day for Group 2.
# [1] = Hydrolysis and stability testing of aqueous BBI-4000 formulations (HPLC); settings: aqueous formulations of Table II
# Procedure: An HPLC method was developed at a commercial laboratory for assaying the soft anticholinergic analog, and related substances (including hydrolysis products):
# • High performance liquid chromatography (HPLC) system Chromatography data system • XBridge Shield RP18, 4.6×150 mm, 3.5 μm HPLC column • Analytical balance capable of weighing to 0.00001 g • Ultrasonic bath • Volumetric flasks, 1, 5 mL • Syringe Filter: 25 mm, 0.45 μm, HPF Millex-HV, Millipore or suitable alternative
# • BBI-4000 standard • Water, HPLC grade • Acetonitrile (can), Optima grade • Trifluroacetic acid (TFA), Fisher • Mobile Phase “A”: 0.1% TFA in Water • Mobile Phase “B”: 0.1% TFA in Acetonitrile • Auto Sampler Flush: 1:1 Water:Acetonitrile • Diluent: Acetonitrile
# The standards were prepared in duplicate by weighing 2.0±0.1 mg of BBI-4000 into 1 mL volumetric flasks. Dissolved and diluted to volume with acetonitrile and mixed by inversion.
# The liquid chromatographic system was set-up as follows: • HPLC Column: XBridge Shield RP18, 4.6×150 mm, 3.5 μm • Column Temp.: 25±1° C. • Sample Temp.: ambiant • Flow Rate: 1.5 mL/min • Injection Volume: 10 μL • UV Detection: 220 nm • Run Time: 20 minutes
# The HPLC assay was conducted on formulations at differing pH values, and the results were reviewed for “Time-Zero” and at 7 days at 40° C.:
# [2] = Stability of approximately 2% BBI-4000 formulations in four solvent systems (HPLC); format: physicochemical; settings: for Change from Baseline (40° C./75%), reduction: after 7 days at 40° C./75% humidity
# Procedure: Various formulations of approximately 2% BBI-4000 were made and their stabilities assessed. The solvent systems were as follows:
# (a) solvent content: 100% water;
# (b) solvent content: 60% water/40% ethanol;
# (c) solvent content: 30% water/70% ethanol;
# (d) solvent content: 100% ethanol.
# Each sample was assessed at baseline; after 7 days at 25° C./60% humidity; and after 7 days at 40° C./75% humidity. The percentage change from baseline for 40° C. after 7 days was calculated in each case. HPLC analysis was conducted as described in EXAMPLE 2 below.
# [3] = Toxicokinetics (PK analysis) in Gottingen Minipigs; format: in vivo
# Procedure: as §2
# Blood samples for chemistry and hematology analysis were collected as well as PK samples.
# as §3
# [4] = tested on: subjects with axillary hyperhidrosis; assay: Study BBI-4000-CL-101: hyperhidrosis disease severity scale (HDSS); format: in vivo, human
# Procedure: (§1) Efficacy was assessed by the change in gravimetrically measured sweat production and the change in hyperhidrosis disease severity scale (HDSS) from baseline to Day 15 (end of therapy).
# For the HDSS, subjects rated the severity of their hyperhidrosis on a 4-point scale (1, 2, 3, or 4) based on the level of interference with their daily activities.
# [5] = tested on: sweat production in subjects with axillary hyperhidrosis; assay: Study BBI-4000-CL-101: gravimetrically measured sweat production; format: in vivo, human
# Procedure: as §1
# For the gravimetric assessment, sweat production was measured by placing filter paper (pre-weighed) on the axilla for 5 minutes while the subject was in a semi-reclining position at room temperature. The filter paper was covered with plastic during exposure to the axilla, and was then weighed following the 5-minute exposure period to calculate the amount of sweat produced.
# [6] = Solvent Content: 30% water, 70% Ethanol, Baseline
# [7] = Solvent Content: 30% water, 70% Ethanol, Day 7 @ 25° C./60%
# [8] = Solvent Content: 30% water, 70% Ethanol, Day 7 @ 40° C./75%
# [9] = Solvent Content: 60% water, 40% Ethanol, Baseline
# [10] = Solvent Content: 60% water, 40% Ethanol, Day 7 @ 25° C./60%
# [11] = Solvent Content: 60% water, 40% Ethanol, Day 7 @ 40° C./75%
# [12] = Solvent Content: 100% Ethanol, Baseline
# [13] = Solvent Content: 100% Ethanol, Day 7 @ 25° C./60%
# [14] = Solvent Content: 100% Ethanol, Day 7 @ 40° C./75%
# [15] = Solvent Content: 100% Water, Baseline
# [16] = Solvent Content: 100% Water, Day 7 @ 25° C./60%
# [17] = Solvent Content: 100% Water, Day 7 @ 40° C./75%
smiles,measurement,setting,value
"CCOC(=O)C[N@+]1(C)CCC(OC(=O)[C@](O)(c2ccccc2)C2CCCC2)C1.[Br-] (stereo partly drawn) [BBI-4000, (2R,3′R) 3-(2-cyclopentyl-2-phenyl-2-hydroxyacetoxy)-1-(ethoxycarbonylmethyl)-1-methylpyrrolidinium bromide]",Histopathology analysis of treated skin,Gottingen Minipigs,unremarkable and identical to non-treated and vehicle treated skin
same,BBI-4000 content (assay number),"[1]; differing pH, Day 7 at 40° C. vs Time-Zero",decreased
same,"Hydrolytic degradation products (two zwitterion stereoisomers, RRT 0.84 and RRT 0.80)",[1]; Day 7 at 40° C.,noticeably increased
same,BBI-4000 Assay,[2]; [6],1.99%
same,BBI-4000 Main Hydrolysis Products (RRT-0.79-0.84),[2]; [6],0%
same,BBI-4000 Assay,[2]; [7],1.95%
same,BBI-4000 Main Hydrolysis Products (RRT-0.79-0.84),[2]; [7],0.84%
same,BBI-4000 Assay,[2]; [8],1.89%
same,BBI-4000 Main Hydrolysis Products (RRT-0.79-0.84),[2]; [8],3.50%
same,"Change from Baseline (40° C./75%), reduction","[2]; Solvent Content: 30% water, 70% Ethanol",5%
same,BBI-4000 Assay,[2]; [9],1.99%
same,BBI-4000 Main Hydrolysis Products (RRT-0.79-0.84),[2]; [9],0%
same,BBI-4000 Assay,[2]; [10],1.94%
same,BBI-4000 Main Hydrolysis Products (RRT-0.79-0.84),[2]; [10],0.83%
same,BBI-4000 Assay,[2]; [11],1.89%
same,BBI-4000 Main Hydrolysis Products (RRT-0.79-0.84),[2]; [11],3.40%
same,"Change from Baseline (40° C./75%), reduction","[2]; Solvent Content: 60% water, 40% Ethanol",5%
same,BBI-4000 Assay,[2]; [12],2.02%
same,BBI-4000 Main Hydrolysis Products (RRT-0.79-0.84),[2]; [12],0%
same,BBI-4000 Assay,[2]; [13],2%
same,BBI-4000 Main Hydrolysis Products (RRT-0.79-0.84),[2]; [13],0%
same,BBI-4000 Assay,[2]; [14],2.01%
same,BBI-4000 Main Hydrolysis Products (RRT-0.79-0.84),[2]; [14],0%
same,"Change from Baseline (40° C./75%), reduction",[2]; Solvent Content: 100% Ethanol,<1%
same,BBI-4000 Assay,[2]; [15],1.99%
same,BBI-4000 Main Hydrolysis Products (RRT-0.79-0.84),[2]; [15],0%
same,BBI-4000 Assay,[2]; [16],1.91%
same,BBI-4000 Main Hydrolysis Products (RRT-0.79-0.84),[2]; [16],1.90%
same,BBI-4000 Assay,[2]; [17],1.80%
same,BBI-4000 Main Hydrolysis Products (RRT-0.79-0.84),[2]; [17],7.42%
same,"Change from Baseline (40° C./75%), reduction",[2]; Solvent Content: 100% Water,9.5%
same,Systemic exposure of BBI-4000 (PK analysis),"[3]; 10% and 20% gel (20 and 40 mg/kg/day), topical, 14 days","variable, dose related systemic exposure"
same,Time at which the highest concentration was observed,"[3]; after Day-14 dosing, minipig receiving 20% BBI-4000 concentration",2 h
same,Improvement in HDSS assessments compared to vehicle,"[4]; Cohort 2, baseline to Day 15",greater improvement
same,Proportion of subjects reporting a 2-point improvement in HDSS,"[4]; Day 15, aggregate of 5% and 10% gel (8 of 12)",67%
same,Reduction in gravimetrically measured sweat production compared to vehicle,"[5]; Cohort 2, baseline to Day 15",greater reduction
same,Proportion of subjects with at least a 50% reduction in sweat production,"[5]; Day 15, aggregate of 5% and 10% gel (9 of 12)",75%
